# Experimental data from patent publication US4017487A, “7β-(D-5-amino-5-carboxyvaleramido )-7-methoxy-3-substituted-3-cephem-4-carboxylic acid antibiotics” (priority 1974, dated 1977).
# Where “and” joins values, the source holds several entries; their conditions need not be identical. Identical values can stand only once. Entries after “also recorded” stand apart in the source; their conditions may differ. Like-named read-outs stand apart in the source and are kept apart here.
# How the values were obtained:
# Bacillus sp. = assay: In vitro disc-plate agar diffusion, antibacterial spectrum (7 mm = no zone); type: cell-based; conditions: 16 h, 166 μg/ml, inoculum 5 ml/150 ml, 25° C., read-out: Inhibition Zone Diameter
# Xanthomonas vesicatoria = assay: as above; type: cell-based; conditions: 16 h, read-out: Inhibition Zone Diameter
# Proteus morganii 356 [1] = assay: In vivo mouse protection test, cephalosporin-resistant clinical isolate; parameters: species or system white Swiss mice; conditions: s.c. × 2 doses
# From the text: (§1) Methods: The method employed in this characterization is as follows: Female white Swiss mice, average weight 20-23 grams, were infected intraperitoneally with 3-20 times the number of organisms calculated to be lethal for 50% of the infected control animals (3-20 LD50 doses). At the time of infection and again six hours later, therapy was given by the designated route. Controls of the virulence of the culture and the toxicity of the antibiotic for uninfected mice were included in the tests. Seven days after infection the test was considered complete and the amount of the antibiotic (I) that would be required to protect 50% of the infected and treated animals was calculated by the method of Knudsen and Curtis; J. Amer. Stat. Assoc. Vol. 42: page 282 (1947).
# In addition to the aforementioned in vivo trials of the product, a clinical isolate of Proteus morganii 356 which is resistant to cephalosporins and capable of degrading cephalosporin C, was employed in a mouse protection test performed in the same manner as reported above.
# [2] = test system: degradative bacteria / enzymatic degradation; assay: Resistance to enzymatic degradation / bacterial inactivation (general statements); type: biochemical
# From the text: Bacterial Inactivation with 810A: An in vitro study was designed to determine the resistance of Antibiotic 810A, to bacterial inactivation as compared with cephalosporin C, cephaloridine and cephalothin.
# cephalosporinases = assay: Resistance to cephalosporinases; type: biochemical
# [3] = test system: Alcaligenes viscosus (MB-12); assay: Bacterial inactivation, washed bacterial cells; conditions: 4 hour incubation; assayed on B. subtilis (MB-964) plates
# Escherichia coli strains = assay: microbe, parasite or virus in culture; type: cell-based; conditions: 16 h, read-out: Inhibition Zone Diameter, 166 μg/ml, Pleocidin-resistant, 37° C.
# Proteus mirabilis 241 = conditions: washed bacterial cells, 4 h, pH 7.5
# Proteus morganii 356 [4] = conditions: washed bacterial cells, 4 h, pH 7.5
# [5] = Blood appearance and urinary excretion; conditions: in vivo
# Vibrio percolans = assay: In vitro disc-plate agar diffusion, antibacterial spectrum (7 mm = no zone); type: cell-based; conditions: Comamonas terrigena, 16 h; 166 μg/ml; inoculum 10 ml/150 ml; 27° C.; read-out: Inhibition Zone Diameter
# Escherichia coli 236 = assay: Bacterial inactivation; conditions: four hours; B. subtilis (MB-964); 240 min
# Proteus morganii 251 = conditions: washed bacterial cells, 4 h, pH 7.5
# Klebsiella pneumoniae B = assay: In vivo mouse protection test; parameters: species or system white Swiss mice; conditions: s.c. × two doses
# From the text: as §1
# (§2) The method employed in these studies is the same as described above with regard to the in vivo characterization of 810A. The results of these tests are described below in Table XIb:
# (§3) Administration was by subcutaneous injection. At the completion of the test period, usually seven days after administration, the amount of product required to protect 50% of the mice (ED50) from this otherwise fatal injection was calculated: […]
# Paracolobactrum arizonae = assay: In vivo mouse protection test; parameters: species or system white Swiss mice; conditions: s.c. × two doses
# From the text: as §1, §2, §3
# Pasteurella multocida = assay: In vivo mouse protection test; parameters: species or system white Swiss mice; conditions: s.c. × two doses
# From the text: as §1, §2, §3
# Aerobacter aerogenes = assay: In vivo mouse protection test; parameters: species or system white Swiss mice; conditions: s.c. × two doses
# From the text: as §1, §2, §3
# Proteus mirabilis = assay: In vivo mouse protection test; parameters: species or system white Swiss mice; conditions: s.c. × two doses
# From the text: as §1, §2, §3
# [6] = test system: Salmonella schottmuelleri; assay: In vivo mouse protection test; parameters: species or system white Swiss mice; conditions: s.c. × two doses
# From the text: as §1, §2, §3
# Salmonella typhosa = assay: In vivo mouse protection test; parameters: species or system white Swiss mice; conditions: s.c. × two doses
# From the text: as §1, §2, §3
# [7] = test system: Diplococcus pneumoniae 2400; assay: In vivo mouse protection test; parameters: species or system white Swiss mice; conditions: s.c. × two doses
# From the text: as §1, §2, §3
# Proteus morganii 3202 = assay: In vivo mouse protection test; parameters: species or system white Swiss mice; conditions: s.c. × two doses
# From the text: as §1, §2, §3
# Escherichia coli = assay: In vivo mouse protection test; parameters: species or system white Swiss mice; conditions: s.c. × two doses
# From the text: as §1, §2, §3
# Klebsiella pneumoniae AD = assay: In vivo mouse protection test; parameters: species or system white Swiss mice; conditions: s.c. × two doses
# From the text: as §1, §2, §3
# Proteus vulgaris = assay: In vivo mouse protection test; parameters: species or system white Swiss mice; conditions: s.c. × two doses
# From the text: as §1, §2, §3
# [8] = test system: gram-negative and gram-positive infections; assay: In vivo protection against infection (general statements); parameters: species or system mice; conditions: for in vivo protection / activity: mouse
# From the text: as §1
# The method employed in these studies is the same as described above with regard to the in vivo characterization of 810A.
# [9] = Isoelectric point and pH stability; type: physicochemical
# Bacillus subtilis = assay: In vitro disc-plate agar diffusion, antibacterial spectrum (7 mm = no zone); type: cell-based; conditions: 16 h, read-out: Inhibition Zone Diameter
# [10] = test system: gram-negative and gram-positive bacteria; assay: Antibacterial activity (general statements); type: cell-based
# Salmonella gallinarum = assay: In vitro disc-plate agar diffusion, antibacterial spectrum (7 mm = no zone); type: cell-based; conditions: Salmonella enterica, 16 h, 166 μg/ml, inoculum 10 ml/150 ml, 25° C., read-out: Inhibition Zone Diameter
# Vibrio percolans MB-1272 = assay: Disc-plate assay using Vibrio percolans; conditions: broth
smiles,measurement,setting,value
CO[C@@]1(NC(=O)CCC[C@@H](N)C(=O)O)C(=O)N2C(C(=O)O)=C(COC(N)=O)CS[C@@H]21 [Example 842A],zone of inhibition at 166 µg/mL,Bacillus sp.,8 mm
same,zone of inhibition at 166 µg/mL,Xanthomonas vesicatoria,19 mm
same,ED50 by Subcutaneous Route × 2 Doses (average of Two Trials),Proteus morganii 356 [1],273 µg
same,resistance to enzymatic degradation,[2]; compared with cephalosporin C,more resistant to enzymatic degradation than cephalosporin C
same,resistance to bacterial inactivation,[2]; compared with other cephalosporins,"more stable than the latter against certain microorganisms; also recorded: more resistant than cephalosporin C to inactivation by A. faecalis, A. viscosus, Escherichia coli 236, Proteus morganii 251, Proteus morganii 236 and Proteus mirabilis 241"
same,resistance to cephalosporinases,cephalosporinases,greater resistance to cephalosporinases
same,percent inactivation,[3],54.4%
same,zone of inhibition at 166 µg/mL,Escherichia coli strains,18 mm
same,percent inactivation,Proteus mirabilis 241,5%
same,percent inactivation,Proteus morganii 356 [4],69%
same,appearance in the blood,[5],appears rapidly in the blood
same,zone of inhibition at 166 µg/mL,Vibrio percolans,56 mm
same,percent inactivation,Escherichia coli 236,38%
same,percent inactivation,Proteus morganii 251,80%
same,ED50 by Subcutaneous Route × Two Doses,Klebsiella pneumoniae B,125 µg
same,ED50 by Subcutaneous Route × Two Doses,Paracolobactrum arizonae,125 µg
same,ED50 by Subcutaneous Route × Two Doses,Pasteurella multocida,57 µg
same,ED50 by Subcutaneous Route × Two Doses,Aerobacter aerogenes,49 µg
same,ED50 by Subcutaneous Route × Two Doses,Proteus mirabilis,276 µg
same,ED50 by Subcutaneous Route × Two Doses,[6],103 µg
same,ED50 by Subcutaneous Route × Two Doses,Salmonella typhosa,33 µg and 34 µg
same,ED50 by Subcutaneous Route × Two Doses,[7],566 µg
same,ED50 by Subcutaneous Route × Two Doses,Proteus morganii 3202,276 µg
same,ED50 by Subcutaneous Route × Two Doses,Escherichia coli,200 µg
same,ED50 by Subcutaneous Route × Two Doses,Klebsiella pneumoniae AD,125 µg
same,ED50 by Subcutaneous Route × Two Doses,Proteus vulgaris,51 µg
same,in vivo protection / activity,[8],"protects against infection with three species of Proteus, two of Salmonella, one strain of Escherichia coli, two of Klebsiella and also against Paracolobactrum arizonae, Aerobacter aerogenes, Pasteurella multocida and Diplococcus pneumoniae 2400"
same,in vivo protection / activity,[8]; listed as Antibiotic 842A,"effectiveness in vivo on Proteus morganii and an effectiveness against the following gram-negative bacteria: Escherichia coli, Proteus vulgaris, Proteus mirabilis, Proteus morganii, Salmonella schottmuelleri, Klebsiella pneumoniae AD, Klebsiella pneumoniae B, and Paracolobactrum arizonae"
same,oral protection against infections,[8]; oral,"protects against infections due to Paracolobactrum arizonae 3720, Proteus vulgaris 1810, and Salmonella schottmuelleri 3010"
same,apparent isoelectric point,[9],~3.5 pH
same,pH stability,[9],unstable above pH 9.0; also recorded: relatively stable at pH 1.5; also recorded: unstable above pH 7
same,zone of inhibition at 166 µg/mL,Bacillus subtilis,13 mm
same,antibacterial activity,[10],"exhibits activity against Salmonella schottmuelleri 3010, S. gallinarum and S. typhosa; also recorded: inhibits the growth of the following gram-negative bacteria: Escherichia coli, Proteus vulgaris, Alcaligenes faecalis, Brucella bronchiseptica, Salmonella gallinarum, Vibrio percolans and Xanthomonas vesicatoria; also recorded: inhibits the growth of the following gram-positive bacteria: Staphylococcus aureus, Sarcina lutea and Bacillus subtilis"
same,antibacterial activity,[10]; listed as Antibiotic 842A,enhanced activity against gram-negative microorganisms
same,zone of inhibition at 166 µg/mL,Salmonella gallinarum,21 mm
same,inhibition zone,"Vibrio percolans MB-1272; 1:10 dilution, Example 10",21.5 mm.
same,inhibition zone,"Vibrio percolans MB-1272; 4 days, 0.5 inch discs, Example 9",33 mm.
same,inhibition zone,"Vibrio percolans MB-1272; four days, 0.5 inch discs, Example 8",31.5 mm.
